In patent publication US10865208B2, “ATG7 inhibitors and the uses thereof” (Millennium Pharmaceuticals, Inc., priority 2016, dated 2020) one finds IC50 and inhibition data, which are given here for 22 compounds.

pIC50: −log10 of the molar value.

This experiment concerns the target recombinant human His-ATG7 enzyme (Homo sapiens (Human), UniProt O95352). The experiment can be described thus: ATG7 Enzyme Assay (HTRF/FRET, ATG3-GST and Flag-Gabarap). The conditions noted are these: for inhibition at 0.069 µM: Concentration 0.069 μM; for inhibition at 0.069 µM / inhibition at 0.123 µM: read-out: Percent Inhibition; for inhibition at 0.123 µM: Concentration 0.123 μM. Type of experiment: biochemical. On the procedure:
Example 97: ATG7 Enzyme Assay
The total volume of the ATG7 enzymatic assay is 50 μL and contains 50 mM HEPES Hemisodium (pH 7.5), 0.05% BSA, 0.01% Tween-20, 25 mM NaCl, 5 mM MgCl2, 10 μM ATP, 250 μM GSH, 5 nM ATG3-GST, 5 nM Flag-Gabarap, 100 μM TCEP and 0.15 nM recombinant human His-ATG7 enzyme. The enzymatic reaction mixture, with and without inhibitor, was incubated at 24° C. for 105 min in a 384-well plate before termination with […] of Stop/Detection buffer (0.1M HEPES Hemisodium pH 7.5, 0.05% Tween20, 20 mM EDTA, 410 mM KF, 0.53 nM Europium-Cryptate labeled monoclonal anti-Flag M2 Antibody (CisBio International) and 8.125 μg/ml PHYCOLINK goat anti-GST allophycocyanin (XL-APC) antibody (Prozyme)). After incubation for 2 hours at 24° C., quantification of FRET is performed on the Pherostar™ (BMG Labtech). Percentage inhibition values at a single concentration or enzyme inhibition (IC50) values are determined from those curves. One skilled in the art will appreciate that the values generated either as percentage inhibition at a single concentration or IC50 values are subject to experimental variation.
Background: Time-resolved FRET reads energy transfer from a long-lived donor to a nearby acceptor.

recombinant human His-ATG7 enzyme, sequence (O95352 whole entry): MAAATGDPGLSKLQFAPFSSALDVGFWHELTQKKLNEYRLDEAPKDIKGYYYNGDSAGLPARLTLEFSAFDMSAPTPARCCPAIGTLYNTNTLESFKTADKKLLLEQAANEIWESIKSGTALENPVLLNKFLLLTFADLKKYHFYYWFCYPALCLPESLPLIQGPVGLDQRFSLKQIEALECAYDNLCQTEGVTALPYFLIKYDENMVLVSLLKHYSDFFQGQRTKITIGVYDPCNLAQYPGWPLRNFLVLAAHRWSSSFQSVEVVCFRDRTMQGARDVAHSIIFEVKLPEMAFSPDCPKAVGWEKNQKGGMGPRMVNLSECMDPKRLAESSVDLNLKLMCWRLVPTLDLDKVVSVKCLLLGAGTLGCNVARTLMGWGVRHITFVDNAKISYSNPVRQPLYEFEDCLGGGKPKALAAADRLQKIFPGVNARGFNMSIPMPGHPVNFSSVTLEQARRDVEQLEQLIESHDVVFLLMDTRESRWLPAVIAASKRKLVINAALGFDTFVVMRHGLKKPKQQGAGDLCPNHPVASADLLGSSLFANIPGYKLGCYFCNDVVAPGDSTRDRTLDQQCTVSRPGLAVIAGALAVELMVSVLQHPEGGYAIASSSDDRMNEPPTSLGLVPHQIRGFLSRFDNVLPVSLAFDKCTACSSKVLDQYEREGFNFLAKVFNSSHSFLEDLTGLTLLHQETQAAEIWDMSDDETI

Usually pIC50 stands for the IC50 on a negative log10 scale, so that one unit is a factor of ten. As usually defined, the inhibition is the change of the read-out against control, counted positive when it falls. Turning to `COCC#Cc1nn([C@@H]2O[C@H](COS(N)(=O)=O)[C@@H](O)[C@H]2O)c2ncnc(N)c12` [Compound I-11, {(2R,3S,4R,5R)-5-[4-amino-3-(3-methoxyprop-1-yn-1-yl)-1H-pyrazolo[3,4-d]pyrimidin-1-yl]-3,4-dihydroxytetrahydrofuran-2-yl}methyl Sulfamate], the pIC50 was < 6.30 and the inhibition at 0.069 µM was 9%.

For the compound `Nc1ncnc2c1c(CCc1ccccc1)nn2[C@@H]1O[C@H](COS(N)(=O)=O)[C@@H](O)[C@H]1O` [Compound I-12, {(2R,3S,4R,5R)-5-[4-amino-3-(2-phenylethyl)-1H-pyrazolo[3,4-d]pyrimidin-1-yl]-3,4-dihydroxytetrahydrofuran-2-yl}methyl Sulfamate], the pIC50 was 6.30 to 7.00 and the inhibition at 0.123 µM amounted to 20%.

In the case of `N#Cc1nn([C@@H]2O[C@H](COS(N)(=O)=O)[C@@H](O)[C@H]2O)c2ncnc(N)c12` [Compound I-13, [(2R,3S,4R,5R)-5-(4-amino-3-cyano-1H-pyrazolo[3,4-d]pyrimidin-1-yl)-3,4-dihydroxytetrahydrofuran-2-yl]methyl Sulfamate], the pIC50 was 7.30 to 7.70 and the inhibition at 0.123 µM is 80%.

For `CC#Cc1nn([C@@H]2O[C@H](COS(N)(=O)=O)[C@@H](O)[C@H]2O)c2ncnc(N)c12` [Compound I-14, {(2R,3S,4R,5R)-5-[4-amino-3-(prop-1-yn-1-yl)-1H-pyrazolo[3,4-d]pyrimidin-1-yl]-3,4-dihydroxytetrahydrofuran-2-yl}methyl Sulfamate], the pIC50 was 6.30 to 7.00 and the inhibition at 0.069 µM is 17%.

On to `NCc1nn([C@@H]2O[C@H](COS(N)(=O)=O)[C@@H](O)[C@H]2O)c2ncnc(N)c12` [Compound I-15, {(2R,3S,4R,5R)-5-[4-amino-3-(aminomethyl)-1H-pyrazolo[3,4-d]pyrimidin-1-yl]-3,4-dihydroxytetrahydrofuran-2-yl}methyl Sulfamate], for which the pIC50 was < 6.30 and the inhibition at 0.069 µM is 16%.

On to `NC(=O)c1nn([C@@H]2O[C@H](COS(N)(=O)=O)[C@@H](O)[C@H]2O)c2ncnc(N)c12` [Compound I-16, [(2R,3S,4R,5R)-5-(4-amino-3-carbamoyl-1H-pyrazolo[3,4-d]pyrimidin-1-yl)-3,4-dihydroxytetrahydrofuran-2-yl]methyl Sulfamate], for which the pIC50 is 6.30 to 7.00 and the inhibition at 0.069 µM came to 22%.

As to `NCC#Cc1nn([C@@H]2O[C@H](COS(N)(=O)=O)[C@@H](O)[C@H]2O)c2ncnc(N)c12` [Compound I-17, {(2R,3S,4R,5R)-5-[4-amino-3-(3-aminoprop-1-yn-1-yl)-1H-pyrazolo[3,4-d]pyrimidin-1-yl]-3,4-dihydroxytetrahydrofuran-2-yl}methyl Sulfamate], the pIC50 is < 6.30 and the inhibition at 0.069 µM was found to be 10%.

For the compound `C=Cc1nn([C@@H]2O[C@H](COS(N)(=O)=O)[C@@H](O)[C@H]2O)c2ncnc(N)c12` [Compound I-18, [(2R,3S,4R,5R)-5-(4-amino-3-vinyl-1H-pyrazolo[3,4-d]pyrimidin-1-yl)-3,4-dihydroxytetrahydrofuran-2-yl]methyl Sulfamate], the pIC50 was 7.00 to 7.30 and the inhibition at 0.123 µM came to 62%.

For the compound `COCc1nn([C@@H]2O[C@H](COS(N)(=O)=O)[C@@H](O)[C@H]2O)c2ncnc(N)c12` [Compound I-19, {(2R,3S,4R,5R)-5-[4-amino-3-(methoxymethyl)-1H-pyrazolo[3,4-d]pyrimidin-1-yl]-3,4-dihydroxytetrahydrofuran-2-yl}methyl Sulfamate], the pIC50 is 6.30 to 7.00 and the inhibition at 0.123 µM was 32%.

On to `CC(=O)c1nn([C@@H]2O[C@H](COS(N)(=O)=O)[C@@H](O)[C@H]2O)c2ncnc(N)c12` [Compound I-21, [(2R,3S,4R,5R)-5-(3-acetyl-4-amino-1H-pyrazolo[3,4-d]pyrimidin-1-yl)-3,4-dihydroxytetrahydrofuran-2-yl]methyl Sulfamate], for which the pIC50 was 6.30 to 7.00 and the inhibition at 0.123 µM amounted to 22%.

Turning to `CC(C)(O)c1nn([C@@H]2O[C@H](COS(N)(=O)=O)[C@@H](O)[C@H]2O)c2ncnc(N)c12` [Compound I-24, {(2R,3S,4R,5R)-5-[4-amino-3-(2-hydroxypropan-2-yl)-1H-pyrazolo[3,4-d]pyrimidin-1-yl]-3,4-dihydroxytetrahydrofuran-2-yl}methyl Sulfamate], the pIC50 is < 6.30 and the inhibition at 0.123 µM was determined as 11%.

Take `Nc1ncnc2c1c(C(F)F)nn2[C@@H]1O[C@H](COS(N)(=O)=O)[C@@H](O)[C@H]1O` [Compound I-25, {(2R,3S,4R,5R)-5-[4-amino-3-(difluoromethyl)-1H-pyrazolo[3,4-d]pyrimidin-1-yl]-3,4-dihydroxytetrahydrofuran-2-yl}methyl Sulfamate]: the pIC50 is 7.00 to 7.30 and the inhibition at 0.123 µM was 64%.

Regarding `Nc1ncnc2c1c(C1CC1)nn2[C@@H]1O[C@H](COS(N)(=O)=O)[C@@H](O)[C@H]1O` [Compound I-26, [(2R,3S,4R,5R)-5-(4-amino-3-cyclopropyl-1H-pyrazolo[3,4-d]pyrimidin-1-yl)-3,4-dihydroxytetrahydrofuran-2-yl]methyl Sulfamate], the pIC50 was 7.00 to 7.30 and the inhibition at 0.123 µM came out at 53%.

On to `Nc1ncnc2c1c(OC(F)F)nn2[C@@H]1O[C@H](COS(N)(=O)=O)[C@@H](O)[C@H]1O` [Compound I-27, {(2R,3S,4R,5R)-5-[4-amino-3-(difluoromethoxy)-1H-pyrazolo[3,4-d]pyrimidin-1-yl]-3,4-dihydroxytetrahydrofuran-2-yl}methyl Sulfamate], for which the pIC50 was 7.30 to 7.70 and the inhibition at 0.123 µM was determined as 78%.

In the case of `CC(C)(O)CSc1nn([C@@H]2O[C@H](COS(N)(=O)=O)[C@@H](O)[C@H]2O)c2ncnc(N)c12` [Compound I-28, [(2R,3S,4R,5R)-5-{4-amino-3-[(2-hydroxy-2-methylpropyl)sulfanyl]-1H-pyrazolo[3,4-d]pyrimidin-1-yl}-3,4-dihydroxytetrahydrofuran-2-yl]methyl sulfamate], the pIC50 was 7.00 to 7.30 and the inhibition at 0.123 µM stood at 71%.

Take `N#CCc1nn([C@@H]2O[C@H](COS(N)(=O)=O)[C@@H](O)[C@H]2O)c2ncnc(N)c12` [Compound I-29, {(2R,3S,4R,5R)-5-[4-amino-3-(cyanomethyl)-1H-pyrazolo[3,4-d]pyrimidin-1-yl]-3,4-dihydroxytetrahydrofuran-2-yl}methyl Sulfamate]: the pIC50 is < 6.30 and the inhibition at 0.123 µM amounted to 26%.

With `Nc1ncnc2c1c(-c1nccs1)nn2[C@@H]1O[C@H](COS(N)(=O)=O)[C@@H](O)[C@H]1O` [Compound I-30, {(2R,3S,4R,5R)-5-[4-amino-3-(1,3-thiazol-2-yl)-1H-pyrazolo[3,4-d]pyrimidin-1-yl]-3,4-dihydroxytetrahydrofuran-2-yl}methyl sulfamate], the pIC50 was < 6.30 and the inhibition at 0.123 µM is 15%.

Turning to `Cc1cccc(CSc2nn([C@@H]3O[C@H](COS(N)(=O)=O)[C@@H](O)[C@H]3O)c3ncnc(N)c23)c1` [Compound I-31, [(2R,3S,4R,5R)-5-{4-amino-3-[(3-methylbenzyl)sulfanyl]-1H-pyrazolo[3,4-d]pyrimidin-1-yl}-3,4-dihydroxytetrahydrofuran-2-yl]methyl sulfamate], the pIC50 was 7.30 to 7.70 and the inhibition at 0.123 µM is 85%.

As for `Nc1ncnc2c1c(SCc1ccc(OC(F)(F)F)cc1)nn2[C@@H]1O[C@H](COS(N)(=O)=O)[C@@H](O)[C@H]1O` [Compound I-32, [(2R,3S,4R,5R)-5-(4-amino-3-{[4-(trifluoromethoxy)benzyl]sulfanyl}-1H-pyrazolo[3,4-d]pyrimidin-1-yl)-3,4-dihydroxytetrahydrofuran-2-yl]methyl sulfamate], the pIC50 was 7.30 to 7.70 and the inhibition at 0.123 µM worked out at 73%.

On to `Nc1ncnc2c1c(SCc1ccc(C(F)(F)F)cc1)nn2[C@@H]1O[C@H](COS(N)(=O)=O)[C@@H](O)[C@H]1O` [Compound I-33, [(2R,3S,4R,5R)-5-(4-amino-3-{[4-(trifluoromethyl)benzyl]sulfanyl}-1H-pyrazolo[3,4-d]pyrimidin-1-yl)-3,4-dihydroxytetrahydrofuran-2-yl]methyl sulfamate], for which the pIC50 was 7.30 to 7.70 and the inhibition at 0.123 µM turned out to be 82%.

As to `Nc1ncnc2c1c(Sc1ccc(Cl)cc1Cl)nn2[C@@H]1O[C@H](COS(N)(=O)=O)[C@@H](O)[C@H]1O` [Compound I-34, [(2R,3S,4R,5R)-5-{4-amino-3-[(2,4-dichlorophenyl)sulfanyl]-1H-pyrazolo[3,4-d]pyrimidin-1-yl}-3,4-dihydroxytetrahydrofuran-2-yl]methyl sulfamate], the pIC50 was 7.00 to 7.30 and the inhibition at 0.123 µM turned out to be 70%.

Take `COCCSc1nn([C@@H]2O[C@H](COS(N)(=O)=O)[C@@H](O)[C@H]2O)c2ncnc(N)c12` [Compound I-35, [(2R,3S,4R,5R)-5-{4-amino-3-[(2-methoxyethyl)sulfanyl]-1H-pyrazolo[3,4-d]pyrimidin-1-yl}-3,4-dihydroxytetrahydrofuran-2-yl]methyl sulfamate]: the pIC50 was 7.30 to 7.70 and the inhibition at 0.123 µM came out at 72%.
